The subject of data set [1] is human monocyte-derived dendritic cells. Description: FACS: binding of misfolded proteins and BiP to human monocyte-derived dendritic cells. The format is cell-based. An excerpt: In vitro generation of peripheral blood human monocyte-derived dendritic cells, and analyses for binding of misfolded proteins and BiP
Human DCs are generated from non-proliferating precursors selected from peripheral blood mononuclear cells (PBMCs), essentially by published methods (Sallustro and Lanzavecchia [1994], J. Exp. Med. 179 1109-1118). Relative abundant presence of CD1a, CD32, CD36, CD40, CD54, CD86, HLA-DR and CD206 and relative low content of CD14 positive, CD16 positive, CD64 positive, CD80 positive, CD83 positive and CD163 positive cells serve as a quality measure for the immature DCs. After obtaining the immature DCs upon stimulation with GM-CSF and IL-4, direct binding of misfolded proteins and BiP to the DCs is assessed by incubating 200.000 cells (2*10^6 cells/ml) for 30 minutes at 4° C. under metabolic arrested state, with 1) PBS, 2) 58 μg/ml BiP (830 nM), 4) 250 μg/ml BSA-AGE (3.6 μM), 5) BSA-AGE+BiP, 6) 250 μg/ml oxLDL, 7) oxLDL+BiP, 8) mixture of BiP-binding peptides 6BB8-11, 13 (see Table 5), 125 μg/ml+BiP, and 8) 62.5 μg/ml Aβ16-22, 62.5 μg/ml Aβ25-35+BiP. After the incubation and careful washing of the cells, binding of BiP, BSA-AGE and oxLDL is assessed with FACS, using primary antibodies monoclonal anti-FLAG antibody, monoclonal anti-glycated human fibronectin antibody 4B5 and rabbit serum with anti-human apoliprotein B-100 antibody (Dade Behring, Newark, Del., USA), and the appropriate FITC- or PE-labeled secondary antibody. Mean fluorescence intensity (MFI) ratio's are determined by measuring background fluorescence.

The test system of data set [2] is freshly isolated human platelets. Description: Crossbeta-induced human platelet aggregation (aggregometer). The format is cell-based. As for the experimental part:
Ex vivo Human Blood Platelet Aggregation Assay
The influence of crossbeta structure binding chaperones on blood platelet aggregation induced by crossbeta structure or crossbeta structure comprising pathogens is tested with washed platelets or with platelet rich plasma in an aggregometric assay. Freshly drawn human aspirin free blood is mixed gently with citrate buffer to avoid coagulation. Blood is spinned for 15′ at 150*g at 20° C. and supernatant is collected; platelet rich plasma (PRP). Buffer with 2.5% trisodium citrate, 1.5% citric acid and 2% glucose, pH 6.5 is added to a final volume ratio of 1:10 (buffer-PRP). After spinning down the platelets upon centrifugation for 15′ at 330*g at 20° C., the pellet is resuspended in HEPES-Tyrode buffer pH 6.5. Prostacyclin is added to a final concentration of 10 ng/ml, and the solution is centrifuged for 15′ at 330*g at 20° C., with a soft brake. The pellet is resuspended in HEPES-Tyrode buffer pH 7.2 in a way that the final platelet number is adjusted to 200,000-250,000 platelets/μl. Platelets are kept at 37° C. for at least 30′, before use in the assays, to ensure that they are in the resting state. Platelets of approximately five donors are isolated separately.
For the aggregometric assays, platelet solution is added to a glass tube and prewarmed to 37° C. A stirring magnet is added and rotation is set to 900 rpm, and the apparatus (Whole-blood aggregometer, Chrono-log, Havertown, Pa., USA) is blanked. A final volume of 1/10 of the volume of the platelet suspension is added, containing the agonist of interest and/or the premixed antagonist of interest, prediluted in HEPES-Tyrode buffer pH 7.2. Aggregation is followed in time by measuring the absorbance of the solution, that is decrease in time upon platelet aggregation. As a positive control, either 10 μg/ml collagen (Kollagenreagens Horm, NYCOMED Pharma GmbH, Linz, Austria; lot 502940), or 5 μM of synthetic thrombin receptor activating compound TRAP. In tests to analyse the effect of chaperones, 10-100 μg/ml glycated haemoglobin or 10-100 μg/ml amyloid-β is used to induce platelet aggregation. Aggregation is recorded for at least 15′.
Platelet aggregation-studies with freshly isolated human platelets were performed as described above. For aggregation studies, platelets of four separate donors were used on subsequent days.

Data set [3] shares this test system. The data set is described as above. The class given is cell-based. Particulars: 8 μM TRAP.
In another data set the test system is HUVECs. Description: FACS: binding of misfolded proteins and BiP to HUVECs. The format is cell-based, human. As for the experimental part: For these experiments HUVECs were isolated by trypsinization. After trypsinization cells were collected in RPMI 1640, containing P/S and 10% FCS and centrifuged. After centrifugation cells were resuspended in RPMI medium without FCS at a concentration of 1.250.000 cells/250 μl. Individual 4-ml tubes (polypropylene, Greiner), containing 250 μl cell suspensions were made. To each tube 75 μl of a sample, containing either, • a. buffer (PBS) only, or • b. 25 μl PBS+50 μl BiP (1.16 mg/ml), or • c. 50 μl buffer with 25 μl oxLDL (1 mg/ml), or • d. 74 μl buffer with 1 μl BSA-AGE (25 mg/ml), or • e. 24 μl PBS+1 μl BSA-AGE (25 mg/ml)+50 μl BiP (1.16 mg/ml), or • f. 25 μl oxLDL (1 mg/ml)+50 μl BiP (1.16 mg/ml), • g. 1.6 μl dIgIV-65 (20 mg/ml)+73.4 μl PBS • h. […]
was added. Subsequently, the cells were incubated with the sample for approximately 30 minutes at 4° C. Next, cells were pelleted by centrifugation and the supernatant was discarded. Cells were washed subsequently with FACS buffer (PBS/0.5% BSA/0.05% m/v NaN3) at 4° C. and resuspended in FACS-buffer at approximately 1*10^5 cells/100 μl for subsequent analysis. Cell death was determined by adding 3 μl 7-aminoactinomycin D (7AAD) solution (prepared according to standard procedures). Binding of sample BSA-AGE (see elsewhere in this application for preparation details) was determined with anti-AGE monoclonal antibody 4B5 (10 μg/ml) and, after washing, with goat anti-mouse PE secondary antibodies (Jackson Immunoresearch, West Grove, USA). Binding of BSA-AGE was also assessed using the intrinsic fluorescence of BSA-AGE in the PE channel. Binding of oxidized LDL (oxLDL, oxidized for 56% following incubation with FeSO4; specific enhancement of Thioflavin T fluorescence) was determined with rabbit serum with anti-ApoB100 polyclonal antibodies at a concentration of 160 μg/ml and, after washing the cells, with FITC-labelled goat anti-rabbit antibodies (1:200, Jackson). Binding of dIgIV-65 was assessed by using anti-Human IgG antibody. BiP binding was determined using the earlier mentioned anti-FLAG antibody (M2, Sigma-Aldrich).
On the technique in general: Flow cytometry measures light scatter and fluorescence of single cells or particles in a stream.

From patent US20100015126A1, “Methods of Binding of Cross-Beta Structures By Chaperones” (priority 2006, published 2010) come the findings set out here.

Regarding “BiP: Recombinant human HSP70 family chaperone BiP with C-terminal linker, FLAG-tag and His-tag, expressed in HEK 293E cells”, the “Binding of BiP to DCs (MFI ratio)” value in data set [1] (BiP alone, 58 μg/ml, 30 minutes at 4° C.) amounted to 1.4. Moreover, the “Binding to DCs (MFI ratio), BiP” value in data set [1] (FACS, human dendritic cells, detection of BiP, signal divided by background signal) is listed as 1.4. In data set [2], the “Platelet aggregation by protein alone, without activator” value was “did not induce platelet aggregation”. For the same substance, in data set [2] (activators Aβ42t=0, HbAGE, BSA-AGE, four donors), the “Misfolded protein induced platelet aggregation” value was “potently inhibited”. Also, in data set [2] (donor a), the “Platelet aggregation induced by amyloid-β1-42” value was “strongly inhibited” and the “Platelet aggregation induced by crossbeta BSA-AGE” value is “strongly inhibited”. Besides, in data set [2] (donor b, Aβ42t=0 26.7 μg/ml), the “Platelet aggregation induced by Aβ1-42” value is recorded as “inhibited”. The “Platelet aggregation induced by crossbeta BSA-AGE” value in data set [2] (donor b, BSA-AGE 33.3 μg/ml) is “strongly inhibited”. Besides, in data set [2] (donor c), the “Aβ42 induced platelet activation” value is “abolish”, the “BSA-AGE induced platelet aggregation” value was “inhibit” and the “HbAGE induced platelet aggregation” value is “inhibited”. In addition, the “HbAGE induced platelet aggregation” value in data set [2] (donor d, BiP 58 μg/ml, sRAGE 37.4 μg/ml, HbAGE 80 μg/ml) is recorded as “inhibits”. In addition, the TRAP-induced platelet aggregation entry in data set [3] is given as “unaffected”. Besides, in the data set on HUVECs (BiP alone), the “Binding of BiP to HUVECs (MFI ratio)” value came to 1.4. The “Binding of BiP to ECs” value in the data set on HUVECs (co-incubated with dIgIV-86) is on record as “neither BiP did bind”.
